Experimental data published in US20190085024A1, “Alpha-Ketoamide Inhibitors Of Cysteine Proteases” (Phelix Therapeutics, priority 2017, published 2019).
Like-named read-outs stand apart in the source and are kept apart here. *1 amine or outer side, *2 acyl side, *3 side chain or, on linkers, in order; H or OH if unused. Where a SMILES comes first, the peptide text is derived from it. [ ]: non-standard residue; d: D form. The star is where a group is joined. 2Nal = N[CH](Cc1ccc2ccccc2c1)C(=O)O; X1 = CCC(C)C(N[*:1])C(=O)C(=O)[*:2]; Cbz = O=C(OCc1ccccc1)*

Legend:
[1] = system: MERS WT; assay: microbe, parasite or virus in culture; format: cell-based
[2] = biological target: Cathepsin B (Homo sapiens, UniProt P07858); assay: Cathepsin B enzyme assay; conditions: Cat B (μM), Ki by Morrison equation; pH 6.0, substrate Z-Phe-Arg-Amc
[3] = biological target: Calpain; assay: Calpain enzyme assay; format: biochemical; conditions: Ki by Morrison equation; pH 7.5, 5 mM CaCl2
[4] = biological target: Cathepsin L (Homo sapiens, UniProt P07711); assay: Cathepsin L enzyme assay; format: biochemical; conditions: Ki by Morrison equation; pH 5.5, substrate Z-Phe-Arg-Amc; read-out: Cat L
Cathepsin L, sequence (P07711 114-333, species assumed): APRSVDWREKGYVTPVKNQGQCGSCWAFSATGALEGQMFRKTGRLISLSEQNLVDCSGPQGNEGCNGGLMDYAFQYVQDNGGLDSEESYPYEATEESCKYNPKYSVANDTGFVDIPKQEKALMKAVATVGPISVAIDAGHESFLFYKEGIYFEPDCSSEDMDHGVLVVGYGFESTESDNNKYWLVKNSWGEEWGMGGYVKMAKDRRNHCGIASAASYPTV
Excerpt: Two wells contained DMSO only for controls.
Velocity was converted to μM/sec.

[5] = system: Collagen; assay: Fibrosis-Sirius Red Collagen Assay; format: cell-based
[6] = system: MARV WT (Marburg Wild Type); assay: organism not typed; format: cell-based; conditions: read-out: MARV WT (μM) (Marburg Wild Type)
[7] = biological target: T1, Cat K (Homo sapiens, UniProt P43235); assay: Cat K inhibition; format: biochemical
T1 sequence (P43235 115-329): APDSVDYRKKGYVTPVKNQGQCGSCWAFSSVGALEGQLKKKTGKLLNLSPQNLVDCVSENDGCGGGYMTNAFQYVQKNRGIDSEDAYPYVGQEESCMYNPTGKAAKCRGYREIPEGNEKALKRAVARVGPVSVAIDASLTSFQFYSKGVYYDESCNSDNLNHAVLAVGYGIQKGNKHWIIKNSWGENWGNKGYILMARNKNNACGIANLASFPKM

[8] = biological target: Cat S (Homo sapiens, UniProt P25774); assay: Cat S inhibition; format: biochemical
Cat S, sequence (P25774 115-331): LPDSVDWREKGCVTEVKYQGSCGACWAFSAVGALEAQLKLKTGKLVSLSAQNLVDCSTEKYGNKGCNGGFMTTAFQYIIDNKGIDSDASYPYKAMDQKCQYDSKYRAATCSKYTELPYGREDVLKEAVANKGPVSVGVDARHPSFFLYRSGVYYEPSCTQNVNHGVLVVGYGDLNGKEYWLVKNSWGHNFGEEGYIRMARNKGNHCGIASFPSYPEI

[9] = system: EBOV WT (Ebola Wild Type); assay: microbe, parasite or virus in culture; format: cell-based; conditions: read-out: EBOV WT (μM) (Ebola Wild Type)
[10] = Middle East respiratory syndrome-related coronavirus, read-out: MERS WT (μM)

Row | SMILES | IC50 [1, 10] [µM] | Ki [2] [µM] | Ki [3] [nM] | Ki [4] [nM] | IC50 [5] [nM] | IC50 ([1]; read-out: MERS WT) [µM] | IC50 [6] [µM] | Ki [7] [nM] | Ki [8] [nM] | IC50 [9] [µM] | IC50 ([9]; Zaire ebolavirus) [µM]
1 | CC(C)CC(NC(=O)C(Cc1ccccc1)NC(=O)OCc1ccccc1)C(=O)NC(Cc1ccccc1)C(=O)C(=O)NC(CCCNC(=N)N)C(N)=O (stereo not drawn) [PHELIX254, benzyl (1-amino-10-benzyl-6-carbamoyl-1-imino-13-isobutyl-8,9,12,15-tetraoxo-17-phenyl-2,7,11,14-tetraazaheptadecan-16-yl)carbamate] | > 30 | 0.0432 | 3.42 | 0.71 | 3400 | – | – | – | – | – | –
2 | CC(NC(=O)C(Cc1ccccc1)NC(=O)Cc1ccccc1)C(=O)C(=O)NC(Cc1ccccc1)C(=O)NC(Cc1ccc2ccccc2c1)C(N)=O (stereo not drawn) [PHELIX215, N-(1-((1-amino-3-(naphthalen-2-yl)-1-oxopropan-2-yl)amino)-1-oxo-3-phenylpropan-2-yl)-2-oxo-3-(3-phenyl-2-(2-phenylacetamido)propanamido)butanamide] | – | 9.24 | > 10000 | 0.18 | – | 0.99 | 0.16 | 22.2 | 0.48 | 0.02 | –
3 | CCC(C)C(NC(=O)C(CC(C)C)NC(=O)Cc1ccccc1)C(=O)C(=O)NCC(=O)NC(Cc1ccc2ccccc2c1)C(N)=O (stereo not drawn) [PHELIX300, N-(2-((1-amino-3-(naphthalen-2-yl)-1-oxopropan-2-yl)amino)-2-oxoethyl)-4-methyl-3-(4-methyl-2-(2-phenylacetamido)pentanamido)-2-oxohexanamide] | – | – | 0.81 | 0.02 | 4500 | – | – | – | – | – | –
4 | CC(NC(=O)C(Cc1ccccc1)NC(=O)Cc1cccc(F)c1)C(=O)C(=O)NC(Cc1ccccc1)C(=O)NC(C)(C)C(N)=O (stereo not drawn) [PHELIX227, N-(1-((1-amino-2-methyl-1-oxopropan-2-yl)amino)-1-oxo-3-phenylpropan-2-yl)-3-(2-(2-(3-fluorophenyl)acetamido)-3-phenylpropanmido)-2-oxobutanamide] | > 10 | 0.171 | > 10000 | 58.9 | – | – | – | 536 | 16.3 | – | 16.8
5 | CC(NC(=O)C(Cc1ccccc1F)NC(=O)Cc1ccccc1)C(=O)C(=O)NC(Cc1ccccc1)C(=O)NC(C)(C)C(N)=O (stereo not drawn) [PHELIX207, N-(1-((1-amino-2-methyl-1-oxopropan-2-yl)amino)-1-oxo-3-phenylpropan-2-yl)-3-(3-(2-fluorophenyl)-2-(2-phenylacetamido)propanamido)-2-oxobutanamide] | 195 | 0.187 | > 10000 | 15 | – | – | – | 430 | 2.6 | – | 8.59
6 | CC(NC(=O)C(Cc1cccc(F)c1)NC(=O)Cc1ccccc1)C(=O)C(=O)NC(Cc1ccccc1)C(=O)NC(C)(C)C(N)=O (stereo not drawn) [PHELIX212, N-(1-((1-amino-2-methyl-1-oxopropan-2-yl)amino)-1-oxo-3-phenylpropan-2-yl)-3-(3-(3-fluorophenyl)-2-(2-phenylacetamido)propanamido)-2-oxobutanamide] | 139 | 0.231 | > 10000 | 20.3 | – | – | – | 1200 | 13.7 | – | 7.41
7 | CCC(C)C(NC(=O)C(CC(C)C)NC(=O)C(Cc1ccccc1)NC(=O)OCc1ccccc1)C(=O)C(=O)NCC(=O)NC(Cc1ccc2ccccc2c1)C(N)=O (stereo not drawn) [PHELIX270, benzyl (1-amino-9-(sec-butyl)-12-isobutyl-2-(naphthalen-2-ylmethyl)-1,4,7,8,11,14-hexaoxo-16-phenyl-3,6,10,13-tetraazahexadecan-15-yl)carbamate] (Cbz-FL[X1]G[2Nal]-NH2; configuration not given here) | > 30 | > 10 | 0.53 | 1.82 | 3100 | – | – | – | – | – | –
8 | CC(NC(=O)C(Cc1cccc2ccccc12)NC(=O)Cc1ccccc1)C(=O)C(=O)NC(Cc1ccccc1)C(=O)NC(C)(C)C(N)=O (stereo not drawn) [PHELIX205, N-(1-((1-amino-2-methyl-1-oxopropan-2-yl)amino)-1-oxo-3-phenylpropan-2-yl)-3-(3-(napthalen-1-yl)-2-(2-phenylacetamido)propanamido)-2-oxobutanamide] | > 10 | 0.977 | 12500 | 70.4 | – | – | – | 6410 | 229 | – | 21.9
9 | CC(C)CC(NC(=O)OCc1ccccc1)C(=O)NC(C)C(=O)C(=O)NCC(=O)NC(Cc1ccc2ccccc2c1)C(N)=O (stereo not drawn) [PHELIX184, benzyl (1-((4-((2-((1-amino-3-(naphthalen-2-yl)-1-oxopropan-2-yl)amino)-2-oxoethyl)amino)-3,4-dioxobutan-2-yl)amino)-4-methyl-1-oxopentan-2-yl)carbamate] | 7.2 | 0.641 | 10.3 | 4.85 | – | – | 3.34 | 0.5 | 1 | – | 1.87
10 | CC(NC(=O)C(Cc1ccccc1)NC(=O)Cc1ccccc1)C(=O)C(=O)NC(Cc1ccccc1)C(=O)NC(Cc1ccc(C(C)(C)C)cc1)C(N)=O (stereo not drawn) [PHELIX221, N-(1-((1-amino-3-(4-(tert-butyl)phenyl)-1-oxopropan-2-yl)amino)-1-oxo-3-phenylpropan-2-yl)-2-oxo-3-(3-phenyl-2-(2-phenylacetamido)propanamido)butanamide] | 1.32 | 3.57 | > 10000 | 0.02 | – | – | – | 13.6 | 0.19 | – | 0.03
11 | CC(NC(=O)C(Cc1ccccc1)NC(=O)Cc1ccccc1)C(=O)C(=O)NC(Cc1ccccc1)C(=O)NC(Cc1ccc2ccccc2c1)C(N)=O (stereo not drawn) [PHELIX220, N-(1-((1-amino-3-(naphthalen-2-yl)-1-oxopropan-2-yl)amino)-1-oxo-3-phenylpropan-2-yl)-2-oxo-3-(3-phenyl-2-(2-phenylacetamido)propanamido)butanamide] | – | 5.1 | > 10000 | 0.05 | – | 3.15 | – | 21.9 | 0.22 | 0.06 | –
12 | CC(NC(=O)C(Cc1ccc2ccccc2c1)NC(=O)Cc1ccccc1)C(=O)C(=O)NC(Cc1ccccc1)C(=O)NC(C)(C)C(N)=O (stereo not drawn) [PHELIX206, N-(1-((1-amino-2-methyl-1-oxopropan-2-yl)amino)-1-oxo-3-phenylpropan-2-yl)-3-(3-(naphthalen-2-yl)-2-(2-phenylacetamido)propanamido)-2-oxobutanamide] | 12.6 | 0.12 | > 10000 | 6.52 | – | – | 4.68 | > 10000 | 3.96 | – | 2.51
13 | CCC(C)C(NC(=O)C(CC(C)C)NC(=O)OCc1ccccc1)C(=O)C(=O)NCC(=O)N(C)C(Cc1ccccc1)C(N)=O (stereo not drawn) [PHELIX319, benzyl (1-((1-((2-((1-amino-1-oxo-3-phenylpropan-2-yl)(methyl)amino)-2-oxoethyl)amino)-4-methyl-1,2-dioxohexan-3-yl)amino)-4-methyl-1-oxopentan-2-yl)carbamate] | – | 0.456 | 0.68 | 0.28 | 11700 | – | – | – | – | – | –
14 | CC(NC(=O)C(Cc1ccccc1)NC(=O)c1ccccc1)C(=O)C(=O)NC(Cc1ccccc1)C(=O)NC(C)(C)C(N)=O (stereo not drawn) [PHELIX223, N-(1-((4-((1-((1-amino-2-methyl-1-oxopropan-2-yl)amino)-1-oxo-3-phenylpropan-2-yl)amino)-3,4-dioxobutan-2-yl)amino)-1-oxo-3-phenylpropan-2-yl)benzamide] | 35.3 | 0.246 | > 10000 | 19.9 | – | – | – | 281 | 4.44 | – | 5.61
15 | CC(C)CC(NC(=O)OCc1ccccc1)C(=O)NC(C)C(=O)C(=O)N1CC(C(=O)NC(Cc2ccccc2)C(N)=O)C1 (stereo not drawn) [PHELIX187, benzyl (1-((4-(3-((1-amino-1-oxo-3-phenylpropan-2-yl)carbamoyl)azetidin-1-yl)-3,4-dioxobutan-2-yl)amino)-4-methyl-1-oxopentan-2-yl)carbamate] | 56 | 0.0479 | 45.5 | 53.6 | – | – | 13.5 | 3.8 | 2.04 | – | 3.66
16 | CC(C)CC(NC(=O)C(=O)C(C)NC(=O)C(Cc1ccccc1)NC(=O)Cc1ccccc1)C(=O)NC(C)(C)C(N)=O (stereo not drawn) [PHELIX214, N-(1-amino-2-methyl-1-oxopropan-2-yl)-4-methyl-2-(2-oxo-3-(3-phenyl-2-(2-phenylacetamido)propanamido)butanamido)pentanamide] | > 10 | 5.79 | 85400 | 281 | – | – | – | 2460 | 39.8 | – | 24.2
